Counter-ions that a name gives are not always drawn. Like-named read-outs stand apart in the source and are kept apart here.
Key:
[1] = solubility in water of stoichiometric oxicam salts; type: physicochemical
[2] = stability of solutions / precipitation of active material on storage; type: physicochemical
Text: Especially in the case of oxicam derivatives of general formula (I), there is, in addition, the serious problem of instability of their solutions. Even when such compounds or the salts thereof have been brought into solution, these show a strong tendency, even after a relatively short time, to deposit particles and again to precipitate out a part of the active material. For injection solutions, this is naturally not acceptable.
There are thereby unexpectedly obtained, which was not to have been foreseen by the expert, highly concentrated solutions with a content of up to 30% and preferably of 10 to 20%, referred to the amount of active material used, which, even after storage for 15 months, display no deposition of active material. It is most surprising that this stability is fully retained even at low temperatures.

Cc1cc(NC(=O)C2=C(O)c3ccccc3S(=O)(=O)N2C)no1
solubility ([1]; stoichiometric salt with methylglucamine, per milliliter of solution, read-out: active material per milliliter of solution): 49 mg/mL | dependence of degree of precipitation on concentration ([2]; salt solution, over wide ranges): not dependent upon the concentration | stability of the solution ([2]; stoichiometric salts, precipitation of active material): unstable and again precipitate out considerable amounts of active material

Cc1cc(NC(=O)C2=C(O)c3ccccc3S(=O)(=O)N2C)no1 [potassium salts]
solubility in water after storage ([1]; after 4 months, decreased by precipitation from the solution, 175200 min): 20 mg/mL | solubility in water, initial ([1]; shortly after preparation): about 30 mg/ml

Cc1cc(NC(=O)C2=C(O)c3ccccc3S(=O)(=O)N2C)no1 [sodium salts of isoxicam]
solubility ([1]; shortly after preparation, read-out: solubility in water, initial): ~24 mg/mL

Source: patent US4482554A, “Pharmaceutical compositions containing oxicam derivatives and process for their preparation” (Warner-Lambert Company, priority 1982, dated 1984)
